Calls of active or inactive are those of the source. The rule behind the calls is not given here.
Target: T1, UDP-3-O-acyl-N-acetylglucosamine deacetylase (Pseudomonas aeruginosa (strain ATCC 15692 / PAO1 / 1C / PRS 101 / LMG12228)) (UniProt P47205)
T1 sequence (whole entry): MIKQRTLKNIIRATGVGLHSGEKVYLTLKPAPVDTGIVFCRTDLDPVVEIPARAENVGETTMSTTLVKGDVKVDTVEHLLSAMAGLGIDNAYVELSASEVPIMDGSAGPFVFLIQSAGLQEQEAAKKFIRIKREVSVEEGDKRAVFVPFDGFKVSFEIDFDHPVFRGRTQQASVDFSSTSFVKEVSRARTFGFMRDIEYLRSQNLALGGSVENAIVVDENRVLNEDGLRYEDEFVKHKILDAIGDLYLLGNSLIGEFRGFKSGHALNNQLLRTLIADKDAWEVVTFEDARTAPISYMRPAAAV
Experiment: Inhibition at Pseudomonas aeruginosa deacetylase LpxC receptor

Activity: Active
SMILES: O=C(NO)C1COC(c2cccc(C(F)(F)F)c2)=N1 (stereo unspecified)

— ChEMBL document CHEMBL1144589, “Pharmacophoric features of Pseudomonas aeruginosa deacetylase LpxC inhibitors: an electronic and structural analysis” (Bioorg Med Chem Lett, 2007)
